From US8680058B2, “Selectively targeted antimicrobial peptides and the use thereof” (priority 2006, dated 2014)
Converted amounts (≈) assume the structure as drawn. Non-standard residues stand in square brackets, D forms with d. Residues, ends and D or L forms follow the SMILES beside them. No end group written: not given here.

Experiments:
P. aeruginosa ATCC 15692 [1] = assay: Killing of exogenous P. aeruginosa in pooled CF sputum; assay type: cell-based, Pseudomonas aeruginosa
Protocol: 3.2 Activity and stability of G10KHc and G10KHc-D in sputum. Determination of peptide antimicrobial effects or activity in sputum was investigated in a similar manner to previous reports (Sajjan et al., 2001). To assay the activity of G10KHc and G10KHc-D against exogenous P. aeruginosa in sputum, collected sputum samples were diluted 1:10 in 10 mM PBS (PBS) and pooled (referred to as pooled sputum). In 100 μL pooled sputum, ATCC 15692 was added to a final concentration of ˜5×10^6 cfu/mL prior to 25 μM peptide addition.
In samples examining the effect of protease inhibitors on peptide activity, pooled sputum samples were pre-treated for 30 min with 1 mM protease inhibitor, either phenylmethylsulphonylfluoride (PMSF), beta-mercaptoethanol (BME), or ethylenediaminetetraacetic acid (EDTA), (all acquired from Sigma-Aldrich), followed by addition of 25 μM G10KHc and ATCC 15692 (˜5×10^6 cfu/mL).
Bacteria surviving peptide treatment were rescued by dilution (1:50) in growth media at 4 h and kept on ice before appropriate dilution and plating on LB agar supplemented with ampicillin (25 μg/mL). After overnight incubation at 37° C., colonies were counted and the surviving cfu/mL quantitated. 100 cfu/mL was considered as the countable limit for all plating procedures. […]

P. aeruginosa ATCC 15692 [2] = assay: Effect of rhDNase on STAMP killing in concentrated sputum; assay type: cell-based, Pseudomonas aeruginosa
Protocol: 3.4 Effect of rhDNase on STAMP activity in sputum. Recombinant human DNase, which is commonly used during treatment of CF to reduce sputum viscosity and promote airway clearing (Fuchs et al., 1994), was added to pooled, concentrated sputum samples to determine if G10KHc/PMSF and G10KHc-D activity could be improved during co-treatment under these conditions. To determine the effect of rhDNase (Genentech, San Francisco, Calif.) on STAMP killing ability, individual sputum samples were diluted 1:2 in 100 μg/mL rhDNase, briefly vortexed, and incubated at room temperature for 10 min. Treated samples were then pooled, followed by 1 mM PMSF addition, where appropriate, and incubation for 1 h. 25 μM G10KHc or G10KHc-D was then added with ˜5×10^6 cfu/mL ATCC 15692 and incubated 4 h. Survivors were then rescued and quantitated by plating as described above.

P. aeruginosa = assay: microbe, parasite or virus in culture; assay type: cell-based, Pseudomonas aeruginosa; settings: for MIC: Pseudomonas aeruginosa
Protocol: 2.3 Antimicrobial Activities. The general antimicrobial activities of G10KHc, G10, and tobramycin against clinical isolates of P. aeruginosa were evaluated by minimum inhibitory concentration (MIC) assay as previously described (Eckert et al., 2006) and shown in Table 5. MICs are reported in μM, though for familiarity, 1 μM tobramycin=0.468 μg/mL. P. aeruginosa were grown to log phase and adjusted to ˜1×10^5 cfu/mL in Mueller-Hinton (MH) broth and added to 96-well plates. Two-fold serial dilutions of peptide were then added to bacteria and the plates incubated for 18-24 hours at 37° C. MIC was determined as the concentration of peptide present in the last clear well (no growth). […] In contrast to tobramycin, G10KHc was also effective against aminoglycoside and multiple-antibiotic resistant P. aeruginosa isolated from CF patients (AGR10, MR15). Additionally, as mucoid P. aeruginosa are often associated with reduced susceptibility to antimicrobial agents, we were encouraged to find that G10KHc was active against one such strain, PDO300.

P. aeruginosa ATCC 15692 [3] = assay: Time-kill (killing kinetics), P. aeruginosa in LB with 30% mouse serum; assay type: cell-based, Pseudomonas aeruginosa; settings: 10 μM, 1 min to 2 h
Protocol: Time-Kill (killing kinetics) experiments were performed essentially as described previously (Eckert et al., 2006). Briefly, P. aeruginosa were grown to log phase and diluted to ˜1×10^5 cfu/mL (moderate density planktonic cultures) in LB with 30% mouse serum (MP Biomedicals) prior to the addition of 10 μM tobramycin, G10 or G10KHc to the cell suspensions. At each time point, 10 μL of the culture was removed and P. aeruginosa cells rescued by dilution in 500 μL LB and kept on ice until plating. Surviving cfu/mL were quantitated after plating on LB agar and incubating overnight at 37° C. under aerobic conditions.

S. mutans biofilms = assay: Binding of fluorescently labeled genome-derived peptides to S. mutans biofilms; set-up: species or system Streptococcus mutans; settings: fluorescent label
Description: The targeting peptide 1903 was obtained by scanning the genomic sequence of S. mutans UA140. The predicted open reading frames (ORFs) of the publicly-available genome were examined and those ORFs that encoded for proteins under 50 amino acids were noted and re-examined after scanning the entire genome. A number of peptides predicted to be encoded by these ORFs were selected, synthesized with fluorescent labels, tested for binding to S. mutans biofilms.

P. aeruginosa biofilms = assay: Rotating-disk biofilm reactor, P. aeruginosa biofilm killing; assay type: cell-based, Pseudomonas aeruginosa; settings: 100 μg/mL alone, 4 h or 24 h
Protocol: In this experiment, a rotating-disk biofilm reactor system was used for generating quantitative data on biofilm susceptibility to tobramycin, G10 and G10KHc. The system consisted of a reactor vessel containing 250 mL of diluted trypticase-soy broth (TSB) (1:100) medium. Reactors were inoculated with overnight cultures (1%, v/v). After static overnight growth in TSB, a flow of fresh medium was initiated (dilution rate, 0.7 h^−1). After 24 h in a flow of medium, the polycarbonate chips with attached biofilm bacteria were aseptically removed from the spinning disk and washed three times in ddH2O (pH 7.4) and incubated in 1 mL ddH2O. G10 (100 μg/mL), G10KHc (100 μg/mL), tobramycin (100 μg/mL), or a combination of the two was added as indicated. The chips were then incubated for 4 or 24 h in 24-well tissue culture plates (Falcon no. 353047; Becton Dickinson Labware, Franklin Lakes, N.J.). To estimate the number of viable P. aeruginosa remaining, the disks were placed in 1 mL PBS and the cells were dispersed using a tissue homogenizer (Brinkmann Instruments, Westbury, N.Y.) and the total cfu per chip was determined by serial dilution and plating on LB agar.

P. aeruginosa ATCC 15692 [4] = assay: Time-kill against high-density planktonic P. aeruginosa; assay type: cell-based, Pseudomonas aeruginosa
Protocol: For evaluation of enhanced activity between G10KHc and tobramycin against high density planktonic cultures, ATCC 15692 were grown overnight were adjusted to ˜1×10^8 cfu/mL in ddH2O (pH 7.4) and exposed to 5 μM tobramycin, 5 μM G10KHc or a combination of both agents (a combination of 5 μM tobramycin (2.34 μg/mL) and 5 μM G10KHc or G10). 10 μL of the treated cultures was rescued by dilution after 24 h and the surviving cfu/mL plated on LB and counted after growth on LB agar.

CC[C@@H](C)[C@@H](NC(=O)CNC(=O)[C@@H](CCCCN)NC(=O)[C@@H](CCCNC(=N)N)NC(=O)[C@H](NC(=O)[C@H](NC(=O)[C@@H](CCCNC(=N)N)NC(=O)[C@@H](CCCNC(=N)N)NC(=O)[C@@H](CC(C)C)NC(=O)[C@@H](CC(N)=O)NC(=O)[C@@H](CCCCN)NC(=O)[C@@H](CO)NC(=O)CNC(=O)CNC(=O)[C@@H](CO)NC(=O)CNC(=O)CNC(=O)[C@@H](Cc1c[nH]cn1)NC(=O)[C@@H](CCCCN)NC(=O)[C@@H](CCCNC(=N)N)NC(=O)[C@@H](Cc1c[nH]cn1)NC(=O)[C@@H](CCCCN)NC(=O)[C@@H](CCCNC(=N)N)NC(=O)[C@@H](Cc1c[nH]cn1)NC(=O)[C@@H](CCCCN)NC(=O)[C@@H](CCCNC(=N)N)NC(=O)[C@@H](Cc1c[nH]cn1)NC(=O)[C@@H](CCCCN)NC(=O)[C@H](N)CCCCN)[C@H](C)CC)[C@H](C)CC)C(=O)N[C@H](Cc1c[nH]cn1)C(=O)N[C@@H](C(=O)N[C@@H](C(=O)N[C@H](CCCCN)C(=O)N[C@H](CCCCN)C(=O)N[C@H](Cc1ccc(O)cc1)C(=O)NCC(=O)O)[C@H](C)CC)[C@H](C)CC [Peptide G10KHc-D] (H-[dK][dK][dH][dR][dK][dH][dR][dK][dH][dR][dK][dH]GG[dS]GG[dS][dK][dN][dL][dR][dR][dI][dI][dR][dK]G[dI][dH][dI][dI][dK][dK][dY]G-OH; N-terminus and C-terminus assumed)
reduction of recovered P. aeruginosa compared to untreated samples (P. aeruginosa ATCC 15692 [1]; 25 μM, 4 h, no inhibitor): 3-4 log10
recovered cfu/mL as percent of untreated control (P. aeruginosa ATCC 15692 [2]; concentrated sputum not treated with rhDNase): ~30%

KNLRRIIRKGIHIIKKYG [novispirin G10, KNLRRIIRKGIHIIKKYG]
MIC range (P. aeruginosa): 10 to 60 µM
mean MIC (P. aeruginosa): 23.4 µM
killing kinetics (in words) (P. aeruginosa ATCC 15692 [3]): ineffective

NIFEYFLE (synthetic targeting peptide 1903)
binding to S. mutans (S. mutans biofilms): showed the binding activity to S. mutans

NC[C@H]1O[C@H](O[C@H]2[C@H](O)[C@@H](O[C@H]3O[C@H](CO)[C@@H](O)[C@H](N)[C@H]3O)[C@H](N)C[C@@H]2N)[C@H](N)C[C@@H]1O [tobramycin]
killing effect against P. aeruginosa biofilms (P. aeruginosa biofilms): very limited killing effects
MIC (P. aeruginosa; ATCC9027, P. aeruginosa ATCC 9027): 2.12 µM (≈ 0.991 µg/mL)
MIC (P. aeruginosa; ATCC10145, P. aeruginosa ATCC 10145): 1.75 µM (≈ 0.818 µg/mL)
MIC (P. aeruginosa; ATCC15692, P. aeruginosa ATCC 15692): 3.05 µM (≈ 1.43 µg/mL)
MIC (P. aeruginosa; ATCC27583, P. aeruginosa ATCC 27583): 1.75 µM (≈ 0.818 µg/mL)
MIC (P. aeruginosa; P. aeruginosa AGR10 (aminoglycoside resistant, CF isolate)): 55 µM (≈ 25.7 µg/mL)
MIC (P. aeruginosa; P. aeruginosa MR15 (multiple-antibiotic resistant, CF isolate)): 55 µM (≈ 25.7 µg/mL)
MIC (P. aeruginosa; P. aeruginosa PAK): 2.12 µM (≈ 0.991 µg/mL)
MIC (P. aeruginosa; P. aeruginosa S40): 0.4 µM (≈ 0.187 µg/mL)
MIC (P. aeruginosa; P. aeruginosa S60): 0.4 µM (≈ 0.187 µg/mL)
MIC (P. aeruginosa; P. aeruginosa S100): 3.5 µM (≈ 1.64 µg/mL)
MIC (P. aeruginosa; PA14, P. aeruginosa PA14): 0.7 µM (≈ 0.327 µg/mL)
MIC (P. aeruginosa; PAO1, P. aeruginosa PAO1): 2.5 µM (≈ 1.17 µg/mL)
improvement in bactericidal effect over 5 μM G10 or G10KHc (P. aeruginosa ATCC 15692 [4]; 5 μM (2.34 μg/mL), 24 hours, high-density planktonic cells): 1-2 log10
surviving cfu/mL (P. aeruginosa ATCC 15692 [4]; 5 μM each agent, 24 h, 1×10^8 cfu/mL culture): 1×10^7 cfu/mL

O=S(=O)(F)Cc1ccccc1 [PMSF, phenylmethylsulphonylfluoride, reference compound]
effect of inhibitor alone on P. aeruginosa viability (P. aeruginosa ATCC 15692 [1]; 1 mM): only a small affect on P. aeruginosa viability

B1: rhDNase: Recombinant human DNase (Genentech), sputum mucolytic agent (protein, UniProt P24855 23-282, looked up)
Deoxyribonuclease-1: LKIAAFNIQTFGETKMSNATLVSYIVQILSRYDIALVQEVRDSHLTAVGKLLDNLNQDAPDTYHYVVSEPLGRNSYKERYLFVYRPDQVSAVDSYYYDDGCEPCGNDTFNREPAIVRFFSRFTEVREFAIVPLHAAPGDAVAEIDALYDVYLDVQEKWGLEDVMLMGDFNAGCSYVRPSQWSSIRLWTSPTFQWLIPDSADTTATPTHCAYDRIVVAGMLLRGAVVPDSALPFNFQAAYGLSDQLAQAISDHYPVEVMLK
effect of rhDNase treatment alone on P. aeruginosa (P. aeruginosa ATCC 15692 [2]; 100 μg/mL rhDNase): not affected
